Experimental data reported in PubChem BioAssay (NCI).
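Test compounds were applied to cells in 96-well plates for 48 hours at 5 doses. GI50 marks 50% less growth. TGI: total growth inhibition.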

What was measured:
Assay in all cases: NCI anticancer screen, dose series, 48 h
HCT-15 colon = system: HCT-15 colon
HL-60(TB) leukemia = system: HL-60(TB) leukemia
KM12 colon = system: KM12 colon
MALME-3M melanoma = system: MALME-3M melanoma
MDA-MB-231 breast = system: MDA-MB-231 breast
NCI-H226 lung = system: NCI-H226 lung
SK-MEL-2 melanoma = system: SK-MEL-2 melanoma
SK-MEL-5 melanoma = system: SK-MEL-5 melanoma
U251 CNS = system: U251 CNS
EKVX NSCLC = system: EKVX NSCLC

| Structure (SMILES) | GI50 (HCT-15 colon) | TGI (HCT-15 colon) | GI50 (HL-60(TB) leukemia) | TGI (HL-60(TB) leukemia) | GI50 (KM12 colon) | TGI (KM12 colon) | GI50 (MALME-3M melanoma) | TGI (MALME-3M melanoma) | GI50 (MDA-MB-231 breast) | TGI (MDA-MB-231 breast) | GI50 (NCI-H226 lung) | TGI (NCI-H226 lung) | GI50 (SK-MEL-2 melanoma) | TGI (SK-MEL-2 melanoma) | GI50 (SK-MEL-5 melanoma) | TGI (SK-MEL-5 melanoma) | GI50 (U251 CNS) | TGI (U251 CNS) | TGI (EKVX NSCLC) | GI50 (EKVX NSCLC) |
| --- | --- | --- | --- | --- | --- | --- | --- | --- | --- | --- | --- | --- | --- | --- | --- | --- | --- | --- | --- | --- |
| COc1cc2[nH]c(C(=O)c3cc(OC)c(OC)c(OC)c3)c(N)c2cc1C#CCO | 432 nM | > 100000 nM | 313 nM | 956 nM | 334 nM | > 100000 nM | 143 nM | > 100000 nM | 629 nM | > 100000 nM | 752 nM | > 100000 nM | 485 nM | > 100000 nM | 87 nM | 1300 nM | 431 nM | > 100000 nM | – | – |
| O=C1C2CC3C(CC2C(=O)[N]1[Sn]([c]1ccccc1)([c]1ccccc1)[c]1ccccc1)C1(Cl)C(Cl)=C(Cl)C3(Cl)C1(Cl)Cl (stereo not given) | 54 nM | 209 nM | 176 nM | 497 nM | 130 nM | 290 nM | 195 nM | 387 nM | 127 nM | 370 nM | 184 nM | 437 nM | 167 nM | 351 nM | 145 nM | 301 nM | 119 nM | 252 nM | – | – |
| CC1=CC2=C(OCO1)C(=O)c1ccccc1C2=O | – | 51600 nM | – | 23100 nM | – | 21900 nM | – | 6480 nM | – | 22400 nM | – | 30200 nM | – | 2230 nM | – | 5270 nM | – | 13300 nM | > 100000 nM | – |
| Nc1ncc(-c2cnn(C3CCNCC3)c2)cc1-c1nc2ccccc2o1 | 508 nM | 2500 nM | 472 nM | 1660 nM | 81.2 nM | 1450 nM | 1720 nM | 3370 nM | 2320 nM | 6560 nM | 1970 nM | 6590 nM | 1100 nM | 2720 nM | 2030 nM | 5470 nM | 1480 nM | 3260 nM | 17800 nM | 4400 nM |
| CCOC(=O)[C@H](CSSc1ncnc2cc[nH]c12)NC(=O)[C@@H](C)c1ccc2cc(OC)ccc2c1 | 1730 nM | > 100000 nM | 1040 nM | > 100000 nM | 1610 nM | > 100000 nM | 4020 nM | > 96500 nM | 1080 nM | > 100000 nM | 614 nM | > 100000 nM | 791 nM | > 29000 nM | 2250 nM | > 32500 nM | 4770 nM | > 100000 nM | > 100000 nM | > 100000 nM |
| COc1ccc(-c2cc(-c3ccc(Nc4nc(Nc5ccc(Cl)cc5)nc(Nc5ccc(Cl)cc5)n4)cc3)no2)cc1 | 12400 nM | > 100000 nM | 1870 nM | 12100 nM | 7830 nM | 30300 nM | 20500 nM | 49000 nM | 16400 nM | > 100000 nM | 19800 nM | 49200 nM | 17100 nM | 57500 nM | 5080 nM | 20300 nM | 11200 nM | > 100000 nM | 85600 nM | 10200 nM |
| COc1cc2c(c(OC)c1OC)-c1ccc(OC)c(=O)cc1[C@@H](NC(=O)CCl)CC2 | 30.8 nM | > 100000 nM | < 10 nM | < 13.6 nM | < 10 nM | 52.1 nM | 2510 nM | 26500 nM | < 10 nM | > 46000 nM | 35.7 nM | 10900 nM | < 10 nM | 10300 nM | < 10 nM | < 12.4 nM | < 10 nM | 2020 nM | 23700 nM | < 19.1 nM |
| COc1ccc(C(=S)c2cc(OC)c(OC)c(OC)c2)cc1OC(=O)CCl | < 10 nM | > 100000 nM | < 12.9 nM | < 21.8 nM | < 10 nM | > 100000 nM | 580 nM | > 76600 nM | 25.3 nM | – | 2770 nM | > 100000 nM | 33100 nM | > 100000 nM | 14.1 nM | 61.6 nM | 34.1 nM | > 100000 nM | > 100000 nM | 652 nM |
| CCCCCCCCCCCCCCCCC1=CC(=O)C=C(OC)C1=O | – | > 100000 nM | – | > 100000 nM | – | > 100000 nM | – | > 100000 nM | – | > 100000 nM | – | > 100000 nM | – | > 100000 nM | – | > 100000 nM | – | 93800 nM | > 100000 nM | – |
| CCC1CCc2nc3sc(C(=O)Nc4ccccc4F)c(N)c3cc2C1 (stereo not given) | 401 nM | > 100000 nM | 302 nM | 978 nM | 643 nM | > 100000 nM | 3550 nM | > 100000 nM | > 100000 nM | > 100000 nM | > 100000 nM | > 100000 nM | 10500 nM | > 100000 nM | 656 nM | > 100000 nM | > 100000 nM | > 100000 nM | – | – |
| O=c1[nH]cnc2c(C3OC(CO)C(O)C3O)[nH]nc12 (stereo not given) | – | > 100000 nM | – | > 100000 nM | – | > 100000 nM | – | > 100000 nM | – | > 100000 nM | – | > 100000 nM | – | – | – | > 100000 nM | – | > 100000 nM | > 100000 nM | – |
| CCN1C(=O)N(CC)C2C1NN=c1s/c(=C3\C(=O)N(CCC(C)C)c4ccccc43)c(=O)n12 (stereo not given) | 1310 nM | 3750 nM | 2120 nM | 4500 nM | 616 nM | 11400 nM | – | – | 1660 nM | 3420 nM | 2520 nM | 7690 nM | 2320 nM | 11400 nM | 1550 nM | 3410 nM | 1880 nM | 9810 nM | > 100000 nM | 1340 nM |
| C#C[C@@]1(O)[C@@H](CO)O[C@@H](n2cc(Cl)c3c(N)ncnc32)[C@@H]1O | 143 nM | > 100000 nM | 34.1 nM | 197 nM | 142 nM | > 100000 nM | 241 nM | 3180 nM | 169 nM | 951 nM | 508 nM | – | 146 nM | 481 nM | – | – | – | – | 2430 nM | 261 nM |
| CCCCCCCCCCCCCOC(=O)c1c(C)[nH]c(/C=C2\N=C(c3ccc[nH]3)C=C2OC)c1C | 26.2 nM | – | 18.2 nM | – | < 16.7 nM | > 100000 nM | 2600 nM | > 100000 nM | < 31.4 nM | – | 1020 nM | > 57400 nM | 29.4 nM | 157 nM | 19.4 nM | 91.1 nM | 76.4 nM | 17700 nM | – | – |
